Results as given in BindingDB's records for doi:10.1016/s0960-894x(98)00213-3 (Centre De Recherche Pierre Fabre, 1999).
pIC50: −log10 of the molar value.

Assays:
[1] = In vitro inhibition of pig liver squalene epoxidase in HepG2 cells
[2] = In vitro inhibition of dog liver squalene epoxidase in HepG2 cells

- pIC50 [1]: 7.30
- pIC50 [2]: 7.10
Compound: CCN(C/C=C/C#CC(C)(C)C)Cc1cccc(OCCN(C)S(=O)(=O)c2cccs2)c1 [Thiophene-2-sulfonic acid [2-(3-{[((E)-6,6-dimethyl-hept-2-en-4-ynyl)-ethyl-amino]-methyl}-phenoxy)-ethyl]-methyl-amide]
